Where a name gives a salt, the structure may show the parent alone.
Experiments:
TBK1 = target: T1, TBK1 (Homo sapiens, UniProt Q9UHD2); experiment: TBK biochemical assay; details: 10 point 1:4 dose response, 30 uM top concentration, 90 min at 25° C., LabChip EZ Reader II; read-out: TBK1_IC50
T1 sequence (Q9UHD2 1-729): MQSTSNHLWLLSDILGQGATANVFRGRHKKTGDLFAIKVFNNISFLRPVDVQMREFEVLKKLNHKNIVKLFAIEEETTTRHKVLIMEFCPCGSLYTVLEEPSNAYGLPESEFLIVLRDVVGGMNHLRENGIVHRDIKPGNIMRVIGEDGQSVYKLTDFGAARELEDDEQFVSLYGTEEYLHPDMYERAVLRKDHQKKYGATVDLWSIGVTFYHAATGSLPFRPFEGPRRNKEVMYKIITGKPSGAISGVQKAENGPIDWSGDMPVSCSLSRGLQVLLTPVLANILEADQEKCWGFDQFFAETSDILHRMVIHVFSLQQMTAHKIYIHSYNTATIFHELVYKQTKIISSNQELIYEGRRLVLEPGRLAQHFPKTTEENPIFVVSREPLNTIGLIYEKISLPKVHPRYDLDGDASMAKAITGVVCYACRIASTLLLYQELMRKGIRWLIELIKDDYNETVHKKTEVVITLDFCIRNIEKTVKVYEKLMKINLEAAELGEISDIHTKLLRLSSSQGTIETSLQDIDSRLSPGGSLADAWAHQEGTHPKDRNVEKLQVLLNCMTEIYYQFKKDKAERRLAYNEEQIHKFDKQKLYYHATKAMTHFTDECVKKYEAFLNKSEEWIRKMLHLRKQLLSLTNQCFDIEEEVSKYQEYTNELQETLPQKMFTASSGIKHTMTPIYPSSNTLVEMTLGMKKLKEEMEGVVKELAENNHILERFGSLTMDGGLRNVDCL
Method in brief: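 Read-out was a Caliper LabChip mobility-shift assay, run after a 90-min, 25 °C reaction of TBK1 with substrate and compounds, quenched with stop buffer. Control wells received staurosporine at 10 uM final.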

IKKε = target: T2, IKKε (Homo sapiens, UniProt Q14164); experiment: IKKε biochemical assay; details: 10 point 1:4 dose response, 30 uM top concentration, 90 min at 25° C., LabChip EZ Reader II; read-out: IKKε_IC50
T2 sequence (Q14164 1-716): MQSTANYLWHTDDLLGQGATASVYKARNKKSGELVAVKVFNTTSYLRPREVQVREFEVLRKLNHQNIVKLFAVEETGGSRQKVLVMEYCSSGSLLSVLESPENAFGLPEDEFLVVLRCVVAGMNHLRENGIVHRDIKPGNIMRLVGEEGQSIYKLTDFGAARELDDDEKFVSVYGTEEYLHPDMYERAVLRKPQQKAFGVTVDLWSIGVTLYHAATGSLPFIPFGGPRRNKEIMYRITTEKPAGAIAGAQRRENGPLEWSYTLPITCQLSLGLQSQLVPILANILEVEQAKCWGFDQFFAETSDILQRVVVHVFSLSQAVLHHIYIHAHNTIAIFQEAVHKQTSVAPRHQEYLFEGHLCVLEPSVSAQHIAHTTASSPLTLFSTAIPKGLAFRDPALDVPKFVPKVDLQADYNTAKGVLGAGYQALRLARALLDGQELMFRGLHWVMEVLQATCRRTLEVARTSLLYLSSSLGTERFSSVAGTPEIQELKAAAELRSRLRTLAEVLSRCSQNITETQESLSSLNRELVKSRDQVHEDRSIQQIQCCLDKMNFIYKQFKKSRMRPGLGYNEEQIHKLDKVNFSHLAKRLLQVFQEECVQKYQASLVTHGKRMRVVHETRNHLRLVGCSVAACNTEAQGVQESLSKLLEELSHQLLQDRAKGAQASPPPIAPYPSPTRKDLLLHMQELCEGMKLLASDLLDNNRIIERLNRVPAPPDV
Method in brief: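 Mobility-shift LabChip read-out followed a 90 min, 25° C. reaction of IKKε with substrate and test compound, with DMSO held at 1% final. Reactions were ended with stop buffer. Wells with 10 uM final staurosporine defined complete inhibition, and DMSO-only wells the uninhibited level.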

Row | SMILES | IC50 (TBK1) [µM] | IC50 (IKKε) [µM]
1 | COc1nc(Nc2nccc(-c3ccc(OC4CCOCC4)c(C#N)c3)n2)ccc1N(C)CCN(C)C [Example 34, 5-[2-[(5-[[2-(dimethylamino)ethyl](methyl)amino]-6-methoxypyridin-2-yl)amino]pyrimidin-4-yl]-2-(oxan-4-yloxy)benzonitrile hydrochloride] | < 0.1 | < 0.1
2 | COc1nc(Nc2nccc(-c3ccc(O[C@H]4CCNC[C@H]4F)c(C#N)c3)n2)ccc1C(=O)N(C)C [Example 74, 6-[[4-(3-cyano-4-[[(3R,4S)-3-fluoropiperidin-4-yl]oxy]phenyl)pyrimidin-2-yl]amino]-2-methoxy-N,N-dimethylpyridine-3-carboxamide] | < 0.1 | < 0.1
3 | COc1nc(Nc2nccc(-c3cnc(OC4CCN(C(=O)[C@H](C)O)CC4(F)F)c(C#N)c3)n2)ccc1N1CCN(C2COC2)CC1 (stereo partly drawn) [Example 305, 2-([3,3-difluoro-1-[(2S)-2-hydroxypropanoyl]piperidin-4-yl]oxy)-5-[2-([6-methoxy-5-[4-(oxetan-3-yl)piperazin-1-yl]pyridin-2-yl]amino)pyrimidin-4-yl]pyridine-3-carbonitrile] | < 0.1 | < 0.1
4 | COc1cccc(Nc2nccc(-c3ccc(OC4CCN(C(=O)C(C)O)CC4(F)F)c(C#N)c3)n2)n1 (stereo in doubt) [Example 328, 2-([3,3-difluoro-1-[(2S)-2-hydroxypropanoyl]piperidin-4-yl]oxy)-5-[2-[(6-methoxypyridin-2-yl)amino]pyrimidin-4-yl]benzonitrile] | < 0.1 | < 0.1
5 | COc1nc(Nc2nccc(-c3ccc(OC4CCOCC4)c(C#N)c3)n2)ccc1C(=O)N1CCS(=O)(=O)CC1 [Example 5, 5-{2-[5-(1,1-Dioxo-thiomorpholine-4-carbonyl)-6-methoxy-pyridin-2-ylamino]-pyrimidin-4-yl}-2-(tetrahydro-pyran-4-yloxy)-benzonitrile] | < 0.1 | < 0.1
6 | COc1nc(Nc2nccc(-c3ccc(OC4CCNCC4(F)F)c(C#N)c3)n2)ccc1C1CCN(C)CC1 (stereo not drawn) [Example 144, 2-(3,3-Difluoro-piperidin-4-yloxy)-5-[2-(2-methoxy-1′-methyl-1′,2′,3′,4′,5′,6′-hexahydro-[3,4′]bipyridinyl-6-ylamino)-pyrimidin-4-yl]-benzonitrile] | < 0.1 | < 0.1
7 | COc1nc(Nc2nccc(-c3ccc(OC4CCN(C(=O)[C@H](C)O)CC4(F)F)c(C#N)c3)n2)ccc1N1CCN(C)C[C@@H]1C (stereo partly drawn) [Example 113, 2-[3,3-Difluoro-1-((S)-2-hydroxy-propionyl)-piperidin-4-yloxy]-5-{2-[5-((S)-2,4-dimethyl-piperazin-1-yl)-6-methoxy-pyridin-2-ylamino]-pyrimidin-4-yl}-benzonitrile] | < 0.1 | < 0.1
8 | C[C@H](O)C(=O)N1CCC(Oc2ccc(-c3ccnc(Nc4ccccc4)n3)cc2C#N)C(F)(F)C1 (stereo partly drawn) [Example 209, 2-[3,3-Difluoro-1-((S)-2-hydroxy-propionyl)-piperidin-4-yloxy]-5-(2-phenylamino-pyrimidin-4-yl)-benzonitrile] | < 0.1 | < 0.1
9 | COc1nc(Nc2nccc(-c3ccc(OC4CCN(C(=O)[C@H](C)O)CC4(F)F)c(C#N)c3)n2)ccc1N1CCN(C)[C@@H](C)C1 (stereo partly drawn) [Example 105, 2-[3,3-Difluoro-1-((S)-2-hydroxy-propionyl)-piperidin-4-yloxy]-5-{2-[5-((S)-3,4-dimethyl-piperazin-1-yl)-6-methoxy-pyridin-2-ylamino]-pyrimidin-4-yl}-benzonitrile] | < 0.1 | < 0.1

Reference: US20230019491A1, “PYRIMIDINE TBK/IKKe INHIBITOR COMPOUNDS AND USES THEREOF” (Merck Patent GmbH, priority 2017, published 2023)
